Here are results for three compounds from patent US6369109B1, “Betulinic acid and derivatives thereof useful for the treatment of neuroectodermal tumor” (Deutsches Krebsforschungszentrum Stiftung des Offentlichen …, priority 1998, dated 2002).

Residues, ends and D or L forms follow the SMILES beside them. *: point of attachment. Cbz = O=C(OCc1ccccc1)*; CH2F = FC*

In this assay the test system is caspase-3, caspase-8 and PARP in cytosolic extracts of SHEP cells. Nature of the assay: Cell-free system of apoptosis: cleavage of caspases in cytosolic extracts by mitochondria. The assay is classed as biochemical, human. The note with it: for effect of inhibitor on caspase processing by supernatants from betulinic acid-treated mitochondria: 50 μM bongkrekic acid or 60 μM zVAD-fmk, FIG. 10A. The method, then:
For determination of nuclear fragmentation, nuclei (10^3/μl) were incubated with mitochondria (1 μg/μl) in buffer D (10 mM HEPES, pH 7.4, 50 mM NaCl, 2 mM MgCl2, 5 mM EGTA, 1 mM DDT, 2 mM ATP, 10 mM phosphocreatine, 50 μg/ml creatine kinase, 10 μM cytochalasin B) for 2 h at 37° C. Nuclei were stained with propidium iodide ([…]) and analyzed by flow cytometry. For determination of caspase activation, cytosolic extracts (2 μg/μl) were incubated with mitochondria (1 μg/μl), cytochrome c (0.1-100 μM) or AIF-containing mitochondrial supernatant (0.5 μg/μl) in buffer D for 2 h at 37° C. Partially purified AIF (cytochrome c-free) was prepared as previously described (0.5 mg/ml, Susin et al., 1997, J. Exp. Med. 186, 5-37; Susin et al., 1996, J. Exp. Med. 184, 1331-41). Proteins were separated by 15% SDS-PAGE and Western blot analysis was performed as described above. To confirm equal loading of mitochondrial protein, all Western blots were also developed with an antibody directed against a 60 kDa mitochondrial antigen (data not shown).
SHEP cells transfected with bcl-2 or Bcl-XL or a neomycin resistance vector only were treated with 10 μg/ml betulinic acid for 16 h. Mitochondria were isolated and incubated with cytosolic extracts for 6 h in the presence or absence of 60 μM zVAD-fmk (left panel, cells). Alternatively, mitochondria isolated from untreated cells were incubated with 10 μg/ml betulinic acid or 5 mM atractyloside together with cytosolic extracts for 6 h in the presence or absence of 60 μMZ-VAD-fmk (right panel, mitos, Atra). Cytosolic extracts incubated with mitochondria isolated from untreated cells or with untreated mitochondria were used as control. 40 μg protein per lane isolated front cell lysates were separated by 15% SDS-PAGE. Immunodetection of caspases-3, -8 and PARP protein was performed by mouse anti-caspase-3 mAb, mouse anti-caspase-8 mAb, rabbit anti-PARP polyclonal antibody and ECL.
SHEP cells treated with 10 μg/ml betulinic acid for indicated times. Mitochondria were isolated and incubated with cytosolic extracts for 6 h. Western blot analysis was performed as described above.
Mitochondria isolated from SHEP cells transfected with bcl-2 or Bcl-XL or a neomycrn resistance vector only were treated with 10 μg/ml betulinic acid or 5 mM atractyloside for 0.5 h in the presence or absence of 50 μM bongkrekic acid or 60 μM zVAD-fmk. Mitochondrial supernatants obtained by high speed centrifugation were incubated with cytosolic extracts for 6 h at 37° C. Cytosolic extracts incubated with supernatants of untreated mitochondria were used as control. Western blot analysis was performed as described for FIG. 9A.
For determination of nuclear fragmentation, nuclei (10^3/μl) were incubated with mitochondria (1 μg/μl) in buffer D (10 mM HEPES, pH 7.4, 50 mM NaCl, 2 mM MgCl2, 5 mM EGTA, 1 mM DDT, 2 mM ATP, 10 mM phosphocreatine, 50 μg/ml creatine kinase, 10 μM cytochalasin B) for 2 h at 37° C. Nuclei were stained with propidium iodide ([…]) and analyzed by flow cytometry (Susin et al., 1997 Exp. Cell Res. 236:397-403). For determination of caspase activation, cytosolic extracts (2 μg/μl) were incubated with mitochondria (1 μg/μl), cytochrome c (10 μM) or AIF-containing mitochondrial supernatant (0.5 μg/μl) in buffer D for 2 h at 37° C. Proteins were separated by 15% SDS-PAGE and Western blot analysis was performed as described before.
SHEP cells transfected with Bcl-2 or Bcl-XL or a neomycin resistance vector only (Neo) were treated (Lanes+) with 0.5 μg/ml Doxo or 10 μg/ml Bet A for 16 h. Mitochondria were isolated and incubated with cytosolic extracts for 6 h. in the presence or absence of 60 μm Z-VAD.fmk. Western blot analysis was performed as described in FIG. 14A.

Take `CO[C@H](C/C=C\C=C\CC/C=C/C[C@H](C)/C=C/C(=C\C(=O)O)CC(=O)O)/C(C)=C\C=C(/C)C(=O)O` [bongkrekic acid]: the “effect of inhibitor on caspase processing by supernatants from betulinic acid-treated mitochondria” value is recorded as “inhibited”.

Consider `COc1cccc2c1C(=O)c1c(O)c3c(c(O)c1C2=O)C[C@@](O)(C(=O)CO)C[C@@H]3O[C@H]1C[C@H](N)[C@H](O)[C@H](C)O1` [doxorubicin], for which, where the note is “10 μg/ml betulinic acid or 0.5 μg/ml doxorubicin 16 h, extracts 6 h, FIG. 9A, 15A”, the “caspase and PARP processing in cytosolic extracts by mitochondria from drug-treated cells” value was “induced cleavage of caspases-3, -8 and PARP”.

For the compound `COC(=O)C[C@H](NC(=O)[C@H](C)NC(=O)[C@@H](NC(=O)OCc1ccccc1)C(C)C)C(=O)CF` [zVAD-fmk, benzyloxycarbonyl-Val-Ala-Asp-Fluoromethylketone] (Cbz-Val-Ala-Asp(OMe)-CH2F), the “effect of inhibitor on caspase processing by supernatants from betulinic acid-treated mitochondria” value is “inhibited”. Besides, where the note is “60 μM zVAD-fmk, FIG. 9A, 15A”, the “effect of inhibitor on cleavage of caspases by mitochondria from drug-treated cells” value is “blocked”.
